# Starred links: 1 amine or outer side, 2 acyl side, 3 side chain; linkers in the order of their positions; H or OH if unused. Positions of bridges follow the written chain, without caps; N, C: chain ends. Non-standard residues stand in square brackets, D forms with d. Residues, ends and D or L forms follow the SMILES beside them. *: point of attachment. X1 = CC[C@H](C)[C@@H](N[*:1])[C@@H](O)CC(=O)O[C@H](C(=O)[C@H](C)C(=O)[*:2])C(C)C; NMeY = CN[C@@H](Cc1ccc(O)cc1)C(=O)O; dNMeL = CN[C@H](CC(C)C)C(=O)O; Pyruvoyl = CC(=O)C(=O)*
# What was measured:
# [1] = test system: Herpes simplex virus, type 1; experiment: Inhibition of HSV-1 replication in CV-1 cells; assay type: cell-based; parameters: net virus produced / % Inhibition: dose or concentration left out as unconfirmed; details: HSV-1 in CV-1 cells; for % Inhibition / net virus produced: 24 hours after infection
# Procedure: 2.8 Assay Against HSV-1 (Herpes Simplex Virus Type-1)
# 16 mm diameter wells were seeded each with 2×10^5 CV-1 cells in 1 mL aliquots of MEM 10C. Four days after, cells were infected with HSV-1 at 10C PFU per well. After adsorption for 1.5 hours, the inoculum was replaced in pairs of wells with 0.5 mL aliquots of MEM 5C containing the indicated concentrations of drug. Cells from two wells without drug were scraped into the medium and frozen 4 hours after infection to provide a baseline for calculating new virus production. The average of these samples was 2.5×10^5+1.2×10^6 PFU per mL. The remaining samples were collected 24 hours after infection.
# [2] = test system: B-16 cells; experiment: Growth inhibition of B-16 cells; assay type: cell-based, mouse; details: for % Inhibition / net increase in cell number: 4 day after seeding
# Procedure: 2.4 Assay Against B-16 (Mouse Melanoma)
# (§1) B-16 cells were seeded into 16 mm wells at 1×10^4 cells per well in 1 mL aliquots of MEM 10C […] were carried out in triplicate. A separate set of cultures without drug was counted daily to ensure that the cells remained in exponential growth over the period for observation. Cells were typsinized and counted 4 day after seeding.
# [3] = test system: CV-1 cells (monkey kidney cells); experiment: Cytotoxicity to CV-1 cells; assay type: cell-based
# [4] = test system: HeLa cells; experiment: Growth inhibition of HeLa cells; assay type: cell-based, human; details: HeLa cells in vitro
# Procedure: 2.6 Assay Against HeLa Cells (Human Cervix Epithelioid Carcinoma)
# as §1, with “HeLa” for “B-16”, “MEM 10C. The following day, the medium was replaced with 0.5 mL aliquots of MEM” for “MEM”, “10C containing the indicated concentrations of drug. All” for “10C”, “of” for “for”, “trypsinized” for “typsinized”, “days” for “day”
# [5] = Immunosuppressive / immunomodulator activity
# [6] = test system: L-929 cells; experiment: Growth inhibition of L-929 cells; assay type: cell-based, mouse; details: for % Inhibition / net increase in cell number: 4 days after seeding
# Procedure: 2.3 Assay Against L-929 Cells (Mouse Areolar and Adipose Tissue)
# as §1, with “L-929” for “B-16”, “MEM 10C.[…] The following day, the medium was replaced with 0.5 mL aliquots of MEM” for “MEM”, “10C containing the indicated concentrations of drug. All” for “10C”, “of” for “for”, “days” for “day”
# [7] = test system: murine T-cells; experiment: Growth of murine T-cells
# [8] = test system: L-1210 cells; experiment: Growth inhibition of L-1210 cells; assay type: cell-based, mouse
# Procedure: 2.1 Assay Against L-1210 Cells (Ascetic Fluid from DBA/2mouse)
# (§2) L-1210 cells were seeded into 16 mm wells at 1×10^4 cells per well in 1 mL aliquots of MEN 10C containing the indicated concentrations of drug. All determinations were carried out in triplicate. Cells were counted after three drugs was counted daily to ensure that the cells remained in exponential growth over the period of observation.
# [9] = test system: A-549 cells; experiment: Growth inhibition of A-549 cells; assay type: cell-based, human; details: for % Inhibition / net increase in cell number: 4 days after seeding
# Procedure: 2.5 Assay Against A-549 Cells (Human Lung Carcinoma)
# as §1, with “A-549” for “B-16”, “MEM 10C. The following day, the medium was replaced with 0.5 mL aliquots of MEM” for “MEM”, “10C containing the indicated concentrations of drug. All” for “10C”, “of” for “for”, “trypsinated” for “typsinized”, “days” for “day”
# [10] = test system: Lewis lung carcinoma cells; experiment: Lewis lung in vivo activity; details: QD 1-9, IP
# [11] = test system: murine cells; experiment: Mixed lymphocyte reaction
# [12] = test system: P-388 cells; experiment: Growth inhibition of P-388 cells; assay type: cell-based, mouse; details: for % Inhibition / net increase in cell number: three days
# Procedure: 2.2 Assay Against P-388 Cells (Lymphoid Neoplasm from DBA/2mouse)
# as §2, with “P-388” for “L-1210”, “MEM” for “MEN”, “determination” for “determinations”, “days of incubation. A separate set of cultures within drug” for “drugs”
# [13] = test system: KB cells; experiment: Growth inhibition of KB cells; assay type: cell-based, human; details: for % Inhibition / net increase in cell number: KB
# [14] = test system: B-16 melanoma cells; experiment: B-16 melanoma in vivo activity; parameters: species or system mouse; details: QD 1-9, IP; for B-16 Melanoma % T/C: significant activity T/C ≧ 125
# [15] = test system: P-388 mouse leukemia cells; experiment: P-388 in vivo activity; details: QD 1-9, IP
# [16] = test system: murine B-cells; experiment: Growth of murine B-cells
# [17] = Montgomery et al., Transplantation, 40, 49-56 (1985); cited from earlier work
# [18] = test system: human lymphocytes; details: compared with other didemnin compounds; Montgomery et al. (1987); cited from earlier work
compound,measurement,setting,value
"CC[C@H](C)[C@H]1NC(=O)[C@@H](NC(=O)[C@@H](CC(C)C)N(C)C(=O)[C@@H]2CCCN2C(=O)C(C)=O)[C@@H](C)OC(=O)[C@H](Cc2ccc(OC)cc2)N(C)C(=O)[C@@H]2CCCN2C(=O)[C@H](CC(C)C)NC(=O)[C@@H](C)C(=O)[C@H](C(C)C)OC(=O)C[C@@H]1O [DDB, dehydrodidemnin B] (Pyruvoyl-P[dNMeL]T[X1]LP[NMeY](Me); ester 3-C)",IC50,[1],60 ng/mL
same,% Inhibition,[1]; 0.03 DDB,16%
same,net virus produced,[1]; 0.03 DDB,3.8 × 10^8 PFU/mL
same,% Inhibition,[1]; 0.1 DDB,67%
same,net virus produced,[1]; 0.1 DDB,1.5 × 10^8 PFU/mL
same,% Inhibition,[1]; 0.3 DDB,96%
same,net virus produced,[1]; 0.3 DDB,1.9 × 10^8 PFU/mL
same,% Inhibition,[1]; 1 DDB,100%
same,net virus produced,[1]; 1 DDB,0 PFU/mL
same,% Inhibition,"[2]; B-16, 0.12 ng/mL DDB",25%
same,net increase in cell number,"[2]; B-16, 0.12 ng/mL DDB",1.27 × 10^5
same,% Inhibition,"[2]; B-16, 0.16 ng/mL DDB",0%
same,net increase in cell number,"[2]; B-16, 0.16 ng/mL DDB",1.71 × 10^5
same,% Inhibition,"[2]; B-16, 0.25 ng/mL DDB",54%
same,net increase in cell number,"[2]; B-16, 0.25 ng/mL DDB",8.25 × 10^5
same,% Inhibition,"[2]; B-16, 0.5 ng/mL DDB",74%
same,net increase in cell number,"[2]; B-16, 0.5 ng/mL DDB",4.50 × 10^4
same,% Inhibition,"[2]; B-16, 1.0 ng/mL DDB",83%
same,net increase in cell number,"[2]; B-16, 1.0 ng/mL DDB",2.88 × 10^4
same,IC50,[2]; B-16 cells in vitro,0.225 ng/mL
same,IC50,[3],1000 ng/mL
same,IC50,[4],0.5 ng/mL
same,immunomodulator activity,[5],powerful immunomodulator
same,% Inhibition,"[6]; L-929, 1 ng/mL DDB",27%
same,net increase in cell number,"[6]; L-929, 1 ng/mL DDB",2.31 × 10^5
same,% Inhibition,"[6]; L-929, 2.5 ng/mL DDB",64%
same,net increase in cell number,"[6]; L-929, 2.5 ng/mL DDB",1.13 × 10^5
same,% Inhibition,"[6]; L-929, 5 ng/mL DDB",84%
same,net increase in cell number,"[6]; L-929, 5 ng/mL DDB",5 × 10^5
same,IC50,[6]; L-929 cells in vitro,1.9 ng/mL
same,growth of murine T-cells,[7],inhibits the growth
same,% Inhibition,"[8]; L-1210, 0.05 ng/mL DDB",7%
same,net increase in cell number,"[8]; L-1210, 0.05 ng/mL DDB",2.7 × 10^5
same,% Inhibition,"[8]; L-1210, 0.1 ng/mL DDB",7%
same,net increase in cell number,"[8]; L-1210, 0.1 ng/mL DDB",2.7 × 10^5
same,% Inhibition,"[8]; L-1210, 0.2 ng/mL DDB",28%
same,net increase in cell number,"[8]; L-1210, 0.2 ng/mL DDB",2.1 × 10^5
same,% Inhibition,"[8]; L-1210, 0.5 ng/mL DDB",66%
same,net increase in cell number,"[8]; L-1210, 0.5 ng/mL DDB",1.0 × 10^5
same,% Inhibition,"[8]; L-1210, 1 ng/mL DDB",91%
same,net increase in cell number,"[8]; L-1210, 1 ng/mL DDB",2.5 × 10^5
same,% Inhibition,"[8]; L-1210, 2 ng/mL DDB",98%
same,net increase in cell number,"[8]; L-1210, 2 ng/mL DDB",6.3 × 10^5
same,IC50,[8]; L-1210 cells in vitro,0.3 ng/mL
same,% Inhibition,"[9]; A-549, 0.25 ng/mL DDB",41%
same,net increase in cell number,"[9]; A-549, 0.25 ng/mL DDB",4.80 × 10^4
same,% Inhibition,"[9]; A-549, 0.50 ng/mL DDB",50%
same,net increase in cell number,"[9]; A-549, 0.50 ng/mL DDB",4.00 × 10^4
same,% Inhibition,"[9]; A-549, 1.0 ng/mL DDB",68%
same,net increase in cell number,"[9]; A-549, 1.0 ng/mL DDB",2.50 × 10^4
same,% Inhibition,"[9]; A-549, 2.5 ng/mL DDB",84%
same,net increase in cell number,"[9]; A-549, 2.5 ng/mL DDB",1.30 × 10^4
same,IC50,[9]; A-549 cells in vitro,0.5 ng/mL
same,"Lewis Lung, Mean Tumor Volume",[10]; 80 μg/kg/injn,189 mm^3
same,"Lewis Lung, Mean Tumor Volume",[10]; 160 μg/kg/injn,0 mm^3
same,immune reaction in the mixed lymphocyte reaction,[11],suppresses the immune reaction of murine cells
same,% Inhibition,"[12]; P-388, 0.12 ng/mL DDB",29%
same,net increase in cell number,"[12]; P-388, 0.12 ng/mL DDB",3.97 × 10^5
same,% Inhibition,"[12]; P-388, 0.25 ng/mL DDB",77%
same,net increase in cell number,"[12]; P-388, 0.25 ng/mL DDB",1.27 × 10^5
same,% Inhibition,"[12]; P-388, 0.5 ng/mL DDB",92%
same,net increase in cell number,"[12]; P-388, 0.5 ng/mL DDB",4.47 × 10^5
same,IC50,[12]; P-388 cells in vitro,0.175 ng/mL
same,IC50,[13]; KB cells in vitro,5.6 ng/mL
same,% Inhibition,[13]; 2.5 ng/mL DDB,0%
same,net increase in cell number,[13]; 2.5 ng/mL DDB,4.57 × 10^4
same,% Inhibition,[13]; 5 ng/mL DDB,46%
same,net increase in cell number,[13]; 5 ng/mL DDB,2.40 × 10^4
same,% Inhibition,[13]; 10 ng/mL DDB,77%
same,net increase in cell number,[13]; 10 ng/mL DDB,1.02 × 10^4
same,B-16 Melanoma Median Survival Time Days,[14]; 80 μg/kg/injn,>27.0 days
same,B-16 Melanoma % T/C,[14]; 80 μg/kg/injn,>158%
same,B-16 Melanoma Median Survival Time Days,[14]; 160 μg/kg/injn,>27.0 days
same,B-16 Melanoma % T/C,[14]; 160 μg/kg/injn,>158%
same,"P-388, Median Survival Time",[15]; 80 μg/kg/injn,19.5 days
same,"P-388, Median Survival Time",[15]; 160 μg/kg/injn,21.0 days
same,growth of murine B-cells,[16],inhibits the growth
CC[C@H](C)[C@H]1NC(=O)[C@@H](NC(=O)[C@@H](CC(C)C)N(C)C(=O)[C@@H]2CCCN2C(=O)C(C)O)[C@@H](C)OC(=O)[C@H](Cc2ccc(OC)cc2)N(C)C(=O)[C@@H]2CCCN2C(=O)[C@H](CC(C)C)NC(=O)[C@@H](C)C(=O)[C@H](C(C)C)OC(=O)C[C@@H]1O (stereo partly shown) [Didemnin B],immunosuppressive activity,[17],potent immunosuppressive activity
same,inhibition of binding of prolactin to human lymphocytes,[18],more potent inhibition
